Several values for one entry are separate records, joined by “and”; a condition that tells them apart may be missing. Equal entries are not always repeated. Where two headings read alike, the source gives them in different places.
Experiments:
Test in all cases: SelectScreen kinase assay
[1] = target: CDK5/p25 (Homo sapiens, UniProt Q00535); conditions: 1 h, 1 μM WEL028, 1 h preincubation
Procedure: (§1) Selectivity profiling assays were performed by the Invitrogen SelectScreen™ Services. […] The concentration of ATP was selected to be equal to the KM, unless indicated otherwise.

[2] = target: RET (Homo sapiens, UniProt P07949)
Procedure: as §1

[3] = target: DDR1 (Homo sapiens, UniProt Q08345)
Procedure: as §1

[4] = target: T1, TAOK3 (JIK) (Homo sapiens, UniProt Q9H2K8); conditions: for Inhibition at 1 µM (%): LanthaScreen Binding
T1 sequence (Q9H2K8 1-898): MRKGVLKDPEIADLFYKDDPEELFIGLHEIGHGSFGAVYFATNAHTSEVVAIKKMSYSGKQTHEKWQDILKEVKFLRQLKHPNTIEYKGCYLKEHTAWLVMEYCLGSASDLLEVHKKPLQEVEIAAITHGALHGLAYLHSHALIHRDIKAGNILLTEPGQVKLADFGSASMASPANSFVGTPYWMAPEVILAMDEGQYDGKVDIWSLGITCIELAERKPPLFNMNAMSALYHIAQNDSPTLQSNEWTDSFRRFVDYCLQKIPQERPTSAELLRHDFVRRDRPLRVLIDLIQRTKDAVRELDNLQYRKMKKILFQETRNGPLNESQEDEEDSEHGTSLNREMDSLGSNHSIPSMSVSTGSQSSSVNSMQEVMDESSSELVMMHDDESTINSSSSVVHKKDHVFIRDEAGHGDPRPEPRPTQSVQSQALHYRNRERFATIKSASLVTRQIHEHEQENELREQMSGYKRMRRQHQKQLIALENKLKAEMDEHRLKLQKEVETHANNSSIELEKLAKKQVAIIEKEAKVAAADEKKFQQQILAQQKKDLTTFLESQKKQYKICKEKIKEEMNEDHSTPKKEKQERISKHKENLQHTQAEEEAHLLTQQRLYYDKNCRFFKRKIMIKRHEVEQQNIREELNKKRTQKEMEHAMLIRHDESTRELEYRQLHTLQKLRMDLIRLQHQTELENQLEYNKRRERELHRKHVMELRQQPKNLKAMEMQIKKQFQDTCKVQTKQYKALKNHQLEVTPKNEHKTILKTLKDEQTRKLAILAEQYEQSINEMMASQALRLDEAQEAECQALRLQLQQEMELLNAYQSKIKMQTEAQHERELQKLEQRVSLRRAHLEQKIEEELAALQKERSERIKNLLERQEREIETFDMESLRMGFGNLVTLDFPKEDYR
Procedure: as §1

[5] = target: ABL1 (Homo sapiens, UniProt P00519)
Procedure: as §1

[6] = target: PRKCA (PKC alpha) (Homo sapiens, UniProt P17252)
Procedure: as §1

[7] = target: MARK1 (MARK) (Homo sapiens, UniProt Q9P0L2)
Procedure: as §1

[8] = target: ERN2 (Homo sapiens, UniProt Q76MJ5)
Procedure: as §1

[9] = target: T2, ULK1 (Homo sapiens, UniProt O75385)
T2 sequence (O75385 1-1050): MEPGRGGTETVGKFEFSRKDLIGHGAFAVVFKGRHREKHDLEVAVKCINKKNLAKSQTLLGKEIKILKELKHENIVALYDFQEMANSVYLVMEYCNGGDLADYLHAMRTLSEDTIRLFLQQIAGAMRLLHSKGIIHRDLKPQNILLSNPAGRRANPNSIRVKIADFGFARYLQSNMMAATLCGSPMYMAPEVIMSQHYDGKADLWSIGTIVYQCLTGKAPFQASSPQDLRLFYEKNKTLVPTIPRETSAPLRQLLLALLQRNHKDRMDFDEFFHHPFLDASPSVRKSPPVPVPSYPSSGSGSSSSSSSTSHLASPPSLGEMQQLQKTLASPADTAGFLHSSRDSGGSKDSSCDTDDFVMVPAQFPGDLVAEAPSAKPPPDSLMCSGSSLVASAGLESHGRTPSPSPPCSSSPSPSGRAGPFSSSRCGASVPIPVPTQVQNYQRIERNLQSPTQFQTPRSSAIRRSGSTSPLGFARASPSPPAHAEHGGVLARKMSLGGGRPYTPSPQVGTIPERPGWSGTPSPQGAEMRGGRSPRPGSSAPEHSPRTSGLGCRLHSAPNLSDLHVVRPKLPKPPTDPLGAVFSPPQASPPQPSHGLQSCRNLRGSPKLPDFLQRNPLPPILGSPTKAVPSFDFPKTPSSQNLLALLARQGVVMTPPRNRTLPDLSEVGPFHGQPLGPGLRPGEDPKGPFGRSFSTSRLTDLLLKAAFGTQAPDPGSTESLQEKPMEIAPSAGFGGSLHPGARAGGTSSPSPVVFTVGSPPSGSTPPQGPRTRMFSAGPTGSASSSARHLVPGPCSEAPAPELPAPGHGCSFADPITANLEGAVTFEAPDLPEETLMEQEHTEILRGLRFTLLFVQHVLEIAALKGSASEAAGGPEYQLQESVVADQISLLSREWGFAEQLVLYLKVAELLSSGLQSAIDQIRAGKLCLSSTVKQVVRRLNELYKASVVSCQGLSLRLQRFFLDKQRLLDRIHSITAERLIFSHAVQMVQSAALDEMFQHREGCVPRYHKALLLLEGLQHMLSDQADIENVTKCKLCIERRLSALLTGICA
Procedure: as §1

[10] = target: AMPK A1/B1/G1 (Homo sapiens, UniProt Q13131)
Procedure: as §1

[11] = target: NTRK2 (TRKB) (Homo sapiens, UniProt Q16620)
Procedure: as §1

[12] = target: MAPKAPK3 (Homo sapiens, UniProt Q16644)
Procedure: as §1

[13] = target: GRK6 (Homo sapiens, UniProt P43250)
Procedure: as §1

[14] = 1 h, 1 μM WEL028, 1 h preincubation
[15] = read-out: Inhibition at 1 µM (%)

ABL1, sequence (P00519 whole entry): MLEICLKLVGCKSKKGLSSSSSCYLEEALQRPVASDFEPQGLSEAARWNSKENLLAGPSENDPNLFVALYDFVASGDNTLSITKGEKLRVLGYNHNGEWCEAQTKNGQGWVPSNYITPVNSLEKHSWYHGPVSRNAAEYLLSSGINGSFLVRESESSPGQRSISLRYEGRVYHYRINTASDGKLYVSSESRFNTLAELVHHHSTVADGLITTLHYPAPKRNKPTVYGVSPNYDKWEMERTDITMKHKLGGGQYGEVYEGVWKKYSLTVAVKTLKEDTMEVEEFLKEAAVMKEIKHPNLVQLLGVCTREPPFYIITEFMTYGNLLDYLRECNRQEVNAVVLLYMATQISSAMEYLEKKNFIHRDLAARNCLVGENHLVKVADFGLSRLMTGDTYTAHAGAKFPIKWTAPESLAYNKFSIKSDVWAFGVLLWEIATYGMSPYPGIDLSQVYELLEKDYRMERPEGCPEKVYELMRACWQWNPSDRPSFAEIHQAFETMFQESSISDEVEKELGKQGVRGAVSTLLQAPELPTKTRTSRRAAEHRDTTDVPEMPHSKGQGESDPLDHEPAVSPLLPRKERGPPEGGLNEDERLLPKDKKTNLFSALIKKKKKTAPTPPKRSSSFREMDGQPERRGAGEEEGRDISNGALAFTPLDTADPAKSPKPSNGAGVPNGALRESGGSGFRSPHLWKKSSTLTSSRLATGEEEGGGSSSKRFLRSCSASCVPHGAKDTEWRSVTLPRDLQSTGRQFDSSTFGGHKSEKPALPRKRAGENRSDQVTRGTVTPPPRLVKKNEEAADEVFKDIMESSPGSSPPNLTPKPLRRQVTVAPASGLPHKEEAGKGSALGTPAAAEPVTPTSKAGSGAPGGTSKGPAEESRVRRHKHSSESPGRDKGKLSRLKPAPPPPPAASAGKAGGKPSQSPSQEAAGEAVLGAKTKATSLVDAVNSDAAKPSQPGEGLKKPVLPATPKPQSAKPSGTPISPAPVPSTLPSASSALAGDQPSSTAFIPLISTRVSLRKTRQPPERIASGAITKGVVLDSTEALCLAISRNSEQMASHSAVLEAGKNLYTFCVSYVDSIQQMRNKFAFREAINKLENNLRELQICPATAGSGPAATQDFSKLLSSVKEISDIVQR
MARK1 (MARK), sequence (Q9P0L2 whole entry): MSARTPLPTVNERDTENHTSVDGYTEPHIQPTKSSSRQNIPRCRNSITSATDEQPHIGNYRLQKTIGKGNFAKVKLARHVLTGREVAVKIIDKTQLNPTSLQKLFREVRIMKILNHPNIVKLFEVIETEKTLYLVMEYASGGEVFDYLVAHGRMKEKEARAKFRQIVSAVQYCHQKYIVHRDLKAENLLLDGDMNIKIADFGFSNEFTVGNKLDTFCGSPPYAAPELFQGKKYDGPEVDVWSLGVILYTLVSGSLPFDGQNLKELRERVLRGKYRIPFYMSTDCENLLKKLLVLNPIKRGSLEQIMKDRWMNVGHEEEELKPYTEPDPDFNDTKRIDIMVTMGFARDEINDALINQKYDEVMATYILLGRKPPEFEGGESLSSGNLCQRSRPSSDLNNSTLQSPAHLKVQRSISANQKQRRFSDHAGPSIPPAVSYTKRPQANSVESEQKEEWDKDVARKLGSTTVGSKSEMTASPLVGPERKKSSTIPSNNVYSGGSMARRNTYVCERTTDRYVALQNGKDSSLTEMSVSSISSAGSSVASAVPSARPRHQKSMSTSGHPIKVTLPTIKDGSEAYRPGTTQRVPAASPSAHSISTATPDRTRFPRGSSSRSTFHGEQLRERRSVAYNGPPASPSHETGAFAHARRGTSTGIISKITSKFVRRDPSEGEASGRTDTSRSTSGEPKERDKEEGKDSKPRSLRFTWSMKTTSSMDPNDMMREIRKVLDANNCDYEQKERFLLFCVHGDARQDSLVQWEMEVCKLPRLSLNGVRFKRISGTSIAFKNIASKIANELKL
MAPKAPK3, sequence (Q16644 whole entry): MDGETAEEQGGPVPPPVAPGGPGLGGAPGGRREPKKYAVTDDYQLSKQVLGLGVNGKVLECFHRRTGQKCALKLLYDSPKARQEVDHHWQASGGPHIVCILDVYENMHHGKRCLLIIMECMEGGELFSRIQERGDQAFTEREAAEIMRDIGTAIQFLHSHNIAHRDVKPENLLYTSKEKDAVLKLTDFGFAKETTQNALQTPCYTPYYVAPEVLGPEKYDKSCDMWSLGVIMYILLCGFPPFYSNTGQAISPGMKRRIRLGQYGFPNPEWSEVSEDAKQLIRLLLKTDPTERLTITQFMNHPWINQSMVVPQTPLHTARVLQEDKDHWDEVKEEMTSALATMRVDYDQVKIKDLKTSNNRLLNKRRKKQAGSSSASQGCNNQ
NTRK2 (TRKB), sequence (Q16620 32-822): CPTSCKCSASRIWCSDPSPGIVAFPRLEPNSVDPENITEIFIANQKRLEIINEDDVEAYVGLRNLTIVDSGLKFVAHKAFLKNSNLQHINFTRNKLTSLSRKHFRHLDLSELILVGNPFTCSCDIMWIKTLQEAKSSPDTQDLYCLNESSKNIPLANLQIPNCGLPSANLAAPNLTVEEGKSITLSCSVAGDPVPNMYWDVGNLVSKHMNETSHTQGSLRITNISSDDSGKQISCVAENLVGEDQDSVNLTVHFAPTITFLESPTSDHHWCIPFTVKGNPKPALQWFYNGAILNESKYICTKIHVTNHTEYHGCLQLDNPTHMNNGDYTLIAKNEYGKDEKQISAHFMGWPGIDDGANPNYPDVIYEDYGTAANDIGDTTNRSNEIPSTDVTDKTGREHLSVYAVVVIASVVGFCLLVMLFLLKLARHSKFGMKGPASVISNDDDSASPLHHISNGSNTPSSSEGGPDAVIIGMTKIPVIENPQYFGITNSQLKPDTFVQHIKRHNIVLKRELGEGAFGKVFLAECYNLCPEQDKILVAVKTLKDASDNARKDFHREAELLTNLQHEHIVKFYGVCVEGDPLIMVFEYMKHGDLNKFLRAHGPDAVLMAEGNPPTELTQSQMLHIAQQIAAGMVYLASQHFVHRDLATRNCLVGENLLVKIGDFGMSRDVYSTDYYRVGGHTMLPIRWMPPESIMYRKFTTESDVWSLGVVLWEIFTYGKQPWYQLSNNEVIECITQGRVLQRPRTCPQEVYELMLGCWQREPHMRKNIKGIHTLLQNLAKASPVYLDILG
ERN2, sequence (Q76MJ5 35-926): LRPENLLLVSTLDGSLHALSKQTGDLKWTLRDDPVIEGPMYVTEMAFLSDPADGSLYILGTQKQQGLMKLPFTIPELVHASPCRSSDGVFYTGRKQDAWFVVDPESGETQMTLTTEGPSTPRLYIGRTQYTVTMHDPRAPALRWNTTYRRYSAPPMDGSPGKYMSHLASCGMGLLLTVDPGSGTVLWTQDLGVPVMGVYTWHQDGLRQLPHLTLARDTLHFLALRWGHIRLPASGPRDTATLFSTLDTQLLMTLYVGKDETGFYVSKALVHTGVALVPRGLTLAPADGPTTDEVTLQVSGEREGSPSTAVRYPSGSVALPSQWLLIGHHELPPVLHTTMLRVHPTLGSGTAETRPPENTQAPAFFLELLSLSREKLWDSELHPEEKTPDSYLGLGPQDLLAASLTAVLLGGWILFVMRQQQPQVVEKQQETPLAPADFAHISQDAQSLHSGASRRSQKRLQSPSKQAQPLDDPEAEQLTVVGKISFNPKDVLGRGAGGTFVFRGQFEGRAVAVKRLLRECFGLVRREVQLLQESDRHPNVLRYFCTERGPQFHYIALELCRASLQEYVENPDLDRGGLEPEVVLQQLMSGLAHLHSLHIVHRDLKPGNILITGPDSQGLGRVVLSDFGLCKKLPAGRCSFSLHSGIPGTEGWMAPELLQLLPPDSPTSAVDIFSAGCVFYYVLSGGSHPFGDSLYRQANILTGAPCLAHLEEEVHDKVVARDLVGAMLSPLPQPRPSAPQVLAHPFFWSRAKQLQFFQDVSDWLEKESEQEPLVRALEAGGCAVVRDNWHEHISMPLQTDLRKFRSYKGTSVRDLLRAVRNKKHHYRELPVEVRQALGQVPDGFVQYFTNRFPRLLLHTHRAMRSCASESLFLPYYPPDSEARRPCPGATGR

C#CCOc1ccc(Nc2ncc(Cl)c(Nc3ccccc3NC(=O)C=C)n2)c(OC)c1 [Compound 6]
inhibition at 1 µM [1]: 2% | inhibition at 1 µM [2, 14]: 7% | inhibition at 1 µM ([2]; read-out: Inhibition at 1 µM (%), 1 µM, ZLYTE, ATP Km app): 6% | inhibition at 1 µM [3, 14]: -2% | Inhibition at 1 µM (%) ([3]; DDR1, 1 µM, LanthaScreen Binding, listed as WEL028, 1 µM): -3% | Inhibition at 1 µM (%) [4]: 2% | Inhibition at 1 µM (%) ([4]; listed as WEL028, 1 µM): 0% | inhibition at 1 µM [4, 14]: 1% | inhibition at 1 µM [5, 14]: -3% | Inhibition at 1 µM (%) ([5]; ABL1, 1 µM, ZLYTE, ATP Km app, listed as WEL028, 1 µM): -7% and 1% | inhibition at 1 µM [6, 14]: 14% | Inhibition at 1 µM (%) ([6]; PRKCA (PKC alpha), 1 µM, ZLYTE, ATP Km app, listed as WEL028, 1 µM): 10% | inhibition at 1 µM ([6]; read-out: Inhibition at 1 µM (%), PRKCA (PKC alpha), 1 µM, ZLYTE, ATP Km app): 19% | inhibition at 1 µM [7, 14]: 1% | Inhibition at 1 µM (%) ([7]; MARK1 (MARK), 1 µM, ZLYTE, ATP Km app, listed as WEL028, 1 µM): -1% and 4% | inhibition at 1 µM ([8]; 1 h): -1% | inhibition at 1 µM [8, 15]: -1% | Inhibition (%) ([9]; 1 μM WEL028, 1 h preincubation): 4% | Inhibition at 1 µM (%) ([9]; 1 µM, LanthaScreen Binding, listed as WEL028, 1 µM): 4% | inhibition at 1 µM ([9]; read-out: Inhibition at 1 µM (%), 1 µM, LanthaScreen Binding): 5% | inhibition at 1 µM [10, 14]: 13% | Inhibition at 1 µM (%) ([10]; AMPK A1/B1/G1, 1 µM, ZLYTE, ATP Km app): 21% | inhibition at 1 µM [11, 14]: 5% | Inhibition at 1 µM (%) ([11]; NTRK2 (TRKB), 1 µM, ZLYTE, ATP Km app, listed as WEL028, 1 µM): 0% and 9% | inhibition at 1 µM [12, 14]: 9% | Inhibition at 1 µM (%) ([12]; MAPKAPK3, 1 µM, ZLYTE, ATP Km app, listed as WEL028, 1 µM): 10% | inhibition at 1 µM ([12]; read-out: Inhibition at 1 µM (%), MAPKAPK3, 1 µM, ZLYTE, ATP Km app): 9% | inhibition at 1 µM ([13]; 1 h): 0% | inhibition at 1 µM [13, 15]: 0%
